Measurements as given in paper PMC9181887, “In Vitro Antithrombotic, Hematological Toxicity, and Inhibitor Studies of Protocatechuic, Isovanillic, and p-Hydroxybenzoic Acids from Maclura tricuspidata (Carr.) Bur” (Molecules, 2022).
Values joined by “and” are separate entries in the source; they are usually repeats but may differ in a detail not shown here. Equal entries are not always repeated. Where two headings read alike, the source gives them in different places.

Columns and labels:
human thrombin = molecular target: T1, human thrombin (Homo sapiens, UniProt P00734); assay: Thrombin activity and kinetic/inhibitor assay; format: biochemical; conditions: for inhibition type against thrombin: from Kik/Kiv ratio and Lineweaver–Burk plots; for activity of thrombin: highest concentration of each compound, p < 0.01; for IC50 / Ki / Kik/Kiv / Kcat / Vmax: thrombin; for Vmax value of thrombin decreased by, fold of non-treated: vs non-treated 0.381 ± 0.011 mU/min; for Kcat values of thrombin reduced by, fold of non-treated: vs non-treated 109.87 ± 3.16 s^−1
T1 construct: purchased Sigma-Aldrich
Method: (§1) To determine the thrombin activity, various concentrations of compounds were treated with 1 U human thrombin in 100 μL of 20 mM Tris-HCl, as previously described. The reaction solutions were incubated for 15 min at 37 °C. After the incubation, 1 mM chromogenic substrate for thrombin (S-2238, HD-Phe-Pip-Arg-p-nitroanilide) was added and incubated for 1 h at 37 °C. Absorbance was measured at 405 nm to determine the enzymatic activity. To determine FXa activity, various concentrations of the compounds were mixed with 1 U human FXa in 20 mM Tris-HCl (pH 7.4) in volume of 100 μL, followed by incubation for 15 min at 37 °C. After adding 1 mM N-benzoyl-Ile-Glu-Gly-Arg-p-nitroanilide, a highly specific chromogenic peptide substrate for FXa, the reaction solutions were incubated for 1 h at 37 °C. The residual activity of FXa was measured at 405 nm and is presented as a percentage of inhibition. To investigate FXIIIa activity, various concentrations of the compounds were mixed with 1 U human FXIIIa in 20 mM Tris-HCl (pH 7.4) in a volume of 100 μL, followed by, incubation for 15 min at 37 °C as previously described. The residual activity of FXIIIa was measured using casein and fibrinogen-HRP, according to the manufacturer’s instructions, and was presented as a percentage of inhibition. The negative control was generated by treatment with only thrombin, FXa, or FXIIIa without treatment with any compound.
(§2) Kinetic assays were performed using PA, IVA, and 4-HA for procoagulant proteases (thrombin and FXa) and fibrinoligase (FXIIIa). The kinetic constants were calculated using Lineweaver–Burk plots based on the initial reaction rates with different concentrations (0.1, 0.5, 1, and 2 mM) of each substrate for thrombin, FXa, and FXIIIa treated with or without the compounds (0.065, 0.13, 0.33, 0.65, and 1.30 mM [1–20 μg]) in a total volume of 100 μL. The Michaelis–Menten constant (Km) and maximal velocity (Vmax) were calculated from the x and y intercepts, respectively. […] The median inhibitory concentration (IC50) was defined as the concentration required to reach a 50% reduction in the activity of the three target factors. The Kik and Kiv inhibition constants were calculated using a previously described method. The inhibition type of the compounds against the three target factors was evaluated according to a previously described inhibition type definition.

human FXa = molecular target: T2, human FXa (Homo sapiens, UniProt P00742); assay: FXa activity and kinetic/inhibitor assay; format: biochemical; conditions: for FXa activity: 1–20 μg, vs control, p < 0.05; for IC50 / Kik/Kiv / Kcat / Vmax / Ki: FXa; for inhibition type against FXa: from Kik/Kiv ratio and Lineweaver–Burk plots
T2 construct: purchased Sigma-Aldrich
Method: as §1, §2

[1] = test system: human platelet-poor plasma; assay: Recalcification time assay; format: biochemical; conditions: for Absorbance after Reaction: 650 nm after 30 min, NC2 0.2094 ± 0.0305; for Half Time at 1/2 Maximum: NC2 740 ± 20 s; for Fold of Half Time: NC2 = 1.00
Method: Figure 5 Effect of PA (A), IVA (B), and 4-HA (C) on recalcification time and plasma density. Human platelet-poor plasma was mixed with PA, IVA, and 4-HA dissolved in DMSO in 96-well plates and incubated for 10 min at 37 °C. Thereafter, 100 mM pre-warmed CaCl2 was added to the mixture and absorbance was taken every 60 s at 650 nm for 30 min in a microplate reader. The plasma density was presented as the optical density at 650 nm after 30 min. The half time (s) was presented as reaching a half-maximum absorbance value. NC1, plasma only; NC2, plasma treated with CaCl2; PC, positive control group (1 U heparin); PA1–20, 1–20 μg of PA treated; IVA1–20, 1–20 μg of IVA treated; 4-HA1–20, 1–20 μg of 4-HA treated.
Recalcification time was measured in a 96-well plate, according to a previously described method, with slight modifications. First, 50 μL of human platelet-poor plasma was mixed with 50 μL of the compounds, vehicle as NC2, or 1 U heparin as PC, and incubated at 37 °C for 10 min. Thereafter, 100 mM pre-warmed CaCl2 was added to the mixture and absorbance was measured at 650 nm every 1 min for 30 min using a microplate reader. The plasma density was presented as the absorbance at 650 nm after 30 min. The half time was presented as reaching a half-maximum absorbance value.

human plasma = assay: Coagulation assay, APTT; format: biochemical; conditions: 100 μg; for activated partial thromboplastin time (APTT): control 39.5 ± 1.5 s, p < 0.01
Method: A coagulation assay was performed to evaluate the prolongation potential of the compounds in blood coagulation by measuring APTT, PT, and TT, as previously described. After pretreatment of the compounds with human plasma for 10 min, APTT, PT, and TT were determined by a coagulometer (Thrombostat 1) manufactured by Behnk Elektronik, Germany.

[2] = test system: platelet aggregation/activation in whole blood; assay: PFA-100 platelet function assay, collagen/epinephrine cartridge; format: cell-based; conditions: for Closure time: control 118.6 ± 2.1 s
Method: The effects of the compounds on platelet aggregation/activation and adherence in whole blood under conditions of high shear stress flow were evaluated using a collagen/epinephrine cartridge (Dade Behring, Marburg, Germany) and platelet function analyzer (PFA-100), as previously described. Blood samples were drawn from healthy donors using 3.8% (w/v) sodium citrate. Aliquots of whole blood were treated with different concentrations of compounds and incubated for 5 min at room temperature. Blood samples were added to a collagen/epinephrine cartridge, and the time required for occlusion of the aperture was measured using the analyzer and reported as the closure time. Saline-treated blood was used as a control.

[3] = read-out: Kiv (inhibition constant using Vmax)

T2 sequence (P00742 235-488 limits assumed): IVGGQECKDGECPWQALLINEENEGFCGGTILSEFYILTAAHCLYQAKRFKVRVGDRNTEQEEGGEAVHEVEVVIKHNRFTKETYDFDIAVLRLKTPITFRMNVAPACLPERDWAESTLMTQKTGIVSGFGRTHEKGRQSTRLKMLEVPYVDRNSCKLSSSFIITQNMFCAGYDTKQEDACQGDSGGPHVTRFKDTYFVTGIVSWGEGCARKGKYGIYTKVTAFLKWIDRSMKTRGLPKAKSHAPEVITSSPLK
T2 sequence (P00742 41-179 limits assumed): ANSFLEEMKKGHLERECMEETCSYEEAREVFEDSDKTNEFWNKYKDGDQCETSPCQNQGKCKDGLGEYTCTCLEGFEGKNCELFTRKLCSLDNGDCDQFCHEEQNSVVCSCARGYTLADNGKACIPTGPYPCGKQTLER

## O=C(O)c1ccc(O)c(O)c1 [PA, protocatechuic acid]
Human thrombin
  inhibition type against thrombin: mixed inhibition type
  activity of thrombin: significantly decreased
  IC50: 1110 µM
  Ki: 1110 µM
  Kik/Kiv: 125.4
Human thrombin; compound 0.065 mM (1 μg)
  Kcat: 101.67 ± 1.44 s⁻¹
  Vmax: 0.352 ± 0.019 mU/min
Human thrombin; compound 0.13 mM (2 μg)
  Kcat: 93.29 ± 1.60 s⁻¹
  Vmax: 0.323 ± 0.021 mU/min
Human thrombin; compound 0.325 mM (5 μg)
  Kcat: 85.00 ± 2.13 s⁻¹
  Vmax: 0.295 ± 0.015 mU/min
Human thrombin; compound 0.65 mM (10 μg)
  Kcat: 71.98 ± 1.95 s⁻¹
  Vmax: 0.249 ± 0.009 mU/min
Human thrombin; compound 1.3 mM (20 μg)
  Kcat: 69.08 ± 1.15 s⁻¹
  Vmax: 0.239 ± 0.008 mU/min
Human thrombin; compound 0.065–1.3 mM
  Vmax value of thrombin decreased by, fold of non-treated: 0.65–0.92 fold
  Kcat values of thrombin reduced by, fold of non-treated: 0.63–0.93 fold
Human FXa
  FXa activity: significant reductions
  IC50: 3090 µM
  Kik/Kiv: 1.6
  inhibition type against FXa: uncompetitive inhibition type
Human FXa; compound 0.065 mM (1 μg)
  Kcat: 21.36 ± 0.54 s⁻¹
  Vmax: 0.58 ± 0.03 mU/min
Human FXa; compound 0.13 mM (2 μg)
  Kcat: 17.35 ± 0.48 s⁻¹
  Vmax: 0.47 ± 0.02 mU/min
Human FXa; compound 0.325 mM (5 μg)
  Kcat: 14.67 ± 0.25 s⁻¹
  Vmax: 0.40 ± 0.02 mU/min
Human FXa; compound 0.65 mM (10 μg)
  Kcat: 12.09 ± 0.29 s⁻¹
  Vmax: 0.33 ± 0.01 mU/min
Human FXa; compound 1.3 mM (20 μg)
  Kcat: 11.62 ± 0.31 s⁻¹
  Vmax: 0.32 ± 0.01 mU/min
Human FXa; read-out: Ki
  Ki: 3070 µM
Human FXa; [3]
  Ki: 23 µM
[1]
  half-life and plasma coagulation time: significant delay
[1]; 1 μg
  Absorbance after Reaction: 0.1898 ± 0.0227
  Half Time at 1/2 Maximum: 1220 ± 90 s
  Fold of Half Time: 1.65 ± 0.12
[1]; 2 μg
  Absorbance after Reaction: 0.0201 ± 0.0012
[1]; 5 μg
  Absorbance after Reaction: 0.0044 ± 0.0009
[1]; 10 μg
  Absorbance after Reaction: −0.0047 ± 0.0004
[1]; 20 μg
  Absorbance after Reaction: −0.0103 ± 0.0011
[1]; 5–20 μg
  plasma coagulation for 1800 s: completely delayed
Human plasma
  APTT, fold of control: 1.33 fold
  activated partial thromboplastin time (APTT): 52.5 ± 4.4 s
[2]; 10 μg
  Closure time: 119.9 ± 2.4 s
[2]; 20 μg
  Closure time: 122.1 ± 1.4 s
[2]; 50 μg
  Closure time: 126.3 ± 2.9 s
[2]; 100 μg
  Closure time, fold of control: 1.13 fold
  Closure time: 133.7 ± 5.2 s

## O=C(O)c1ccc(O)cc1 [4-HA, 4-hydroxybenzoic acid]
Human thrombin
  inhibition type against thrombin: uncompetitive inhibition type
  activity of thrombin: significantly decreased
  IC50: 1700 µM
  Ki: 1700 µM
  Kik/Kiv: 1.2
Human thrombin; compound 0.065 mM (1 μg)
  Kcat: 100.59 ± 1.41 s⁻¹
  Vmax: 0.349 ± 0.013 mU/min
Human thrombin; compound 0.13 mM (2 μg)
  Kcat: 98.38 ± 1.24 s⁻¹
  Vmax: 0.341 ± 0.015 mU/min
Human thrombin; compound 0.325 mM (5 μg)
  Kcat: 91.57 ± 0.98 s⁻¹
  Vmax: 0.317 ± 0.016 mU/min
Human thrombin; compound 0.65 mM (10 μg)
  Kcat: 89.25 ± 0.77 s⁻¹
  Vmax: 0.309 ± 0.020 mU/min
Human thrombin; compound 1.3 mM (20 μg)
  Kcat: 78.83 ± 1.01 s⁻¹
  Vmax: 0.273 ± 0.013 mU/min
Human thrombin; compound 0.065–1.3 mM
  Vmax value of thrombin decreased by, fold of non-treated: 0.72–0.92 fold
  Kcat values of thrombin reduced by, fold of non-treated: 0.72–0.92 fold
Human thrombin; vs non-treated 0.566 ± 0.025 mM, compound 0.065–1.3 mM
  Km value of thrombin reduced by, fold of non-treated: 0.71–0.86 fold
Human FXa
  FXa activity: significant reductions
  IC50: 4010 µM
  Kik/Kiv: 5.3
  inhibition type against FXa: non-competitive inhibition
Human FXa; compound 0.065 mM (1 μg)
  Kcat: 22.14 ± 0.22 s⁻¹
  Vmax: 0.60 ± 0.03 mU/min
Human FXa; compound 0.13 mM (2 μg)
  Kcat: 21.77 ± 0.26 s⁻¹
  Vmax: 0.59 ± 0.02 mU/min
Human FXa; compound 0.325 mM (5 μg)
  Kcat: 21.79 ± 0.44 s⁻¹
  Vmax: 0.59 ± 0.04 mU/min
Human FXa; compound 0.65 mM (10 μg)
  Kcat: 21.18 ± 0.42 s⁻¹
  Vmax: 0.57 ± 0.02 mU/min
Human FXa; compound 1.3 mM (20 μg)
  Kcat: 20.22 ± 0.37 s⁻¹
  Vmax: 0.55 ± 0.02 mU/min
Human FXa; read-out: Ki
  Ki: 3990 µM
Human FXa; [3]
  Ki: 109 µM
[1]
  half-life and plasma coagulation time: significant delay
[1]; 1 μg
  Absorbance after Reaction: 0.1424 ± 0.0122
[1]; 2 μg
  Absorbance after Reaction: 0.1086 ± 0.0083
  Half Time at 1/2 Maximum: 950 ± 70 s
  Fold of Half Time: 1.28 ± 0.09
[1]; 5 μg
  Absorbance after Reaction: 0.0866 ± 0.0051
[1]; 10 μg
  Absorbance after Reaction: 0.0233 ± 0.0014
[1]; 20 μg
  Absorbance after Reaction: 0.0205 ± 0.0029
[1]; 1–20 μg
  plasma coagulation time: partially prolonged
Human plasma
  APTT, fold of control: 1.53 fold
  activated partial thromboplastin time (APTT): 60.3 ± 5.6 s
[2]; 10 μg
  Closure time: 121.2 ± 1.9 s
[2]; 20 μg
  Closure time: 127.7 ± 3.1 s
[2]; 50 μg
  Closure time, fold of control: 1.13 fold
  Closure time: 134.6 s and 134.6 ± 4.5 s
[2]; 100 μg
  Closure time, fold of control: 1.24 fold
  Closure time: 147.3 s and 147.3 ± 5.8 s
